One series concerns the target T1, serotonin transporter (Rattus norvegicus, UniProt P31652).
T1 construct: frontal cortical membranes prepared from male S.D. rats; from tissue; host or cells: frontal cortical membranes of male Sprague-Dawley rats
Put plainly: 3H-Paroxetine binding to rat frontal cortical membranes. The following applies: read-out: SSRi % Inhibition (rat brain) at 0.1 μM. Here is the method: ^3H-Paroxetine binding to assess affinity of drugs for the serotonin transporter
A protocol similar to that used by Cheetham et al. (Neuropharmacol. 32:737, 1993) was used to determine the affinity of compounds for the serotonin transporter. Briefly, frontal cortical membranes prepared from male S.D. rats were incubated with ^3H-paroxetine (0.1 nM) for 60 min at 25° C. All tubes also contained either vehicle, test compound (one to eight concentrations), or a saturating concentration of fluoxetine (10 μM) to define […]. All reactions are terminated by the addition of ice cold Tris buffer followed by rapid filtration using a Tom Tech filtration device to separate bound from free ^3H-paroxetine. Bound radioactivity was quantitated using a Wallac 1205 Beta Plate® counter. Results achieved are expressed below as % inhibition of Paroxetine binding at a given concentration.

For a further series, the target named is T2, human 5HT1A receptor (Homo sapiens, UniProt P08908).
T2 construct: expressed in transfected cells
T2 sequence (P08908 1-422): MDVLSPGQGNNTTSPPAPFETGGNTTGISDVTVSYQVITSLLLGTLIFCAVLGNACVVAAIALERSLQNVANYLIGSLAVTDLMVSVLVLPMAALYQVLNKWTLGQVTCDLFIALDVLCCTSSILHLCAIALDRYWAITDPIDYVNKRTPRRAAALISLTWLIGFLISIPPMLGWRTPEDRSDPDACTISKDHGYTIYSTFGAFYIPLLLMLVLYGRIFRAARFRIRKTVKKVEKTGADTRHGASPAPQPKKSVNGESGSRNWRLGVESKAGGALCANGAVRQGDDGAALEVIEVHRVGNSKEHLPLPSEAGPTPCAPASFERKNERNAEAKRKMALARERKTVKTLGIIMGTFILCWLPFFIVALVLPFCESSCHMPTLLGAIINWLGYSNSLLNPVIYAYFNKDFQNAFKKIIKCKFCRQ
Kind of series: [3H] 8-OH-DPAT displacement binding in CHO cells transfected with human 5HT1A receptor. The following applies: [3H] 8-OH-DPAT 1.5 nM. Here is the method:
8-OH-DPAT binding in CHO cells stabily transfected with human 5HT1A receptor. Stabily transfected CHO cells are grown in DMEM containing 10% heat inactivated FBS and non-essential amino acids. Cells are scraped off the plate, transferred to centrifuge tubes, and washed twice by centrifugation (2000 rpm for 10 min., 4° C.) in buffer (50 mM Tris pH 7.5). The resulting pellets are aliquoted and placed at −80° C. On the day of assay, the cells are thawed on ice and resuspended in buffer. The binding assay is performed in a 96 well microtiter plate in a total volume of 250 μL. […] Following a 30 minute incubation at room temperature, the reaction is terminated by the addition of ice cold buffer and rapid filtration through a GF/B filter presoaked for 30 minutes in 0.5% PEI.

In series [1] the target is T3, human dopamine D2 receptor (Homo sapiens, UniProt P14416).
T3 construct: expressed in transfected cells
T3 sequence (P14416 whole entry): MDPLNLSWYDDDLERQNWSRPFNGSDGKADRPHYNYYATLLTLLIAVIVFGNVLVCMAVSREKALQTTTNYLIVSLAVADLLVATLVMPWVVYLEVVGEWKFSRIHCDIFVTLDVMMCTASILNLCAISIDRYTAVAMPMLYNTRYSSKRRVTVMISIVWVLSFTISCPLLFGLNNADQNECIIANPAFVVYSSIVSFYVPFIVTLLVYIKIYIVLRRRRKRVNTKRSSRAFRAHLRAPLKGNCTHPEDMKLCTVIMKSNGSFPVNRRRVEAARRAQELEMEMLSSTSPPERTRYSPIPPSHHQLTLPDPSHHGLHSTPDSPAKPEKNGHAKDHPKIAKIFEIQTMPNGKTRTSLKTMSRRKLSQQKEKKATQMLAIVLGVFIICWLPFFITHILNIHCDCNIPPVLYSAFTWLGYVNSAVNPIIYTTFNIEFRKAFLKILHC
Put plainly: [3H]-Spiperone displacement binding in CHO cells transfected with human dopamine D2 receptor. The following applies: [3H]-Spiperone 0.5 nM, CHO cell membranes. Here is the method:
CHO cells expressing the human dopamine D2 receptor were cultured in suspension by expansion (every 3-4 days) in a serum free media to provide approximately 7.5×10^5 cells/ml. The cells were harvested by centrifugation (900×g for 10 min.), resuspended in half volume of 1×dulbecco PBS solution at pH 7.4, and after a further recentrifugation, the cell pellet was resuspended in 50 mM Tris.HCl (pH 7.4) containing 1.5 mM CaCl2, 5.0 mM EDTA, 5.0 mM KCl, 120 mM NaCl, 1.0 mM PMSF and 1.0 mg % leupeptin. The cells were homogenized, centrifuged at 40,000×g for 30 minutes and resuspended in fresh buffer (10 ml), and the process repeated twice. […] The binding assay is performed in a 96 well microtiter plate. 100 μl of buffer is added to the wells, and those receiving a displacer for nonspecific binding (NSB) assessment or test compounds receive 80 μl of incubation buffer. […] The reaction is initiated by the addition of 80 μl of the tissue membrane, and after 120 minutes at room temperature the wells are harvested using a Brandell® Harvester onto glass fiber filter presoaked in 0.1% polyethylimine.

Counter-ions that a name gives are not always drawn.

T1 sequence (P31652 whole entry): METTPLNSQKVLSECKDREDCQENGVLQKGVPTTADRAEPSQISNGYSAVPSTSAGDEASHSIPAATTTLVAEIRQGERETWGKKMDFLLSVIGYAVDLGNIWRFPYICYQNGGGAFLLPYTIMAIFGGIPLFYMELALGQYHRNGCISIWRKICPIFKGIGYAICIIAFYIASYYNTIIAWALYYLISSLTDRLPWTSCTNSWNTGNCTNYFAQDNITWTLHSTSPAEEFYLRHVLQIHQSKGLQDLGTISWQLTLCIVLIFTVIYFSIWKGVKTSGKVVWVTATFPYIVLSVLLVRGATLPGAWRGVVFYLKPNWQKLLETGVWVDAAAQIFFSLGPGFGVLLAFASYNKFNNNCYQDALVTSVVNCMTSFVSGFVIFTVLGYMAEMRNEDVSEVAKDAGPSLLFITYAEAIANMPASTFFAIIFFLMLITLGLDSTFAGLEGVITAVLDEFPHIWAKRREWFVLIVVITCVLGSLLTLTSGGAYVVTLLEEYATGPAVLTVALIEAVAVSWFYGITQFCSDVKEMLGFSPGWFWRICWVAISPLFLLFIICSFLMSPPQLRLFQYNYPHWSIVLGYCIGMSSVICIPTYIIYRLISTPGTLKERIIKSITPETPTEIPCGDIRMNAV

Broadly, the inhibition is the drop in the measured response relative to a control, in per cent. As a reminder, the Ki is the equilibrium dissociation constant of an inhibitor or competing ligand from its target. Regarding `OC(COc1cccc2[nH]ccc12)CN1CCN(c2cccc3[nH]ccc23)CC1` (stereo not shown) [Example 1, 1-(1H-Indol-4-yloxy)-3-[4-(1H-indol-4-yl)piperazin-1-yl]-propan-2-ol], the inhibition at 0.1 µM on serotonin transporter was 32%. The Ki on human 5HT1A receptor was 6 nM.
In general, melting point refers to the temperature of the solid-liquid transition. The molecule `OC(COc1ccc(Cl)cc1)CN1CCN(c2cccc3[nH]ccc23)CC1` (stereo not shown) (as salt: fumaric acid salt) [Example 2, 1-(4-Chloro-phenoxy)-3-[4-(1H-indol-4-yl)piperazin-1-yl]-propan-2-ol] had a melting point of 224 to 225 °C.
Take `NC(=O)c1cc2c(OCC(O)CN3CCN(c4cccc5[nH]ccc45)CC3)cccc2[nH]1` (stereo not shown) [Example 7, 4 {2-Hydroxy-3-[4-(1H-indol-4-yl)-piperazin-1-yl]propoxy}-1H-indole-2-carboxylic acid amide]: on serotonin transporter, the inhibition at 0.1 µM worked out at 3%. In addition, the Ki at human 5HT1A receptor worked out at 7.2 nM.
Turning to `OC(COc1ccc(F)cc1)CN1CCN(c2cccc3[nH]ccc23)CC1` (stereo not shown) [Example 6, 1-(4-Fluoro-phenoxy)-3-[4-(1H-indol-4-yl)piperazin-1-yl]-propan-2-ol], on serotonin transporter, the inhibition at 0.1 µM turned out to be 0%. The Ki (in series [1]; at human 5HT1A receptor) was 10.4 nM each time.
Turning to `O=[N+]([O-])c1ccc(OCC(O)CN2CCN(c3cccc4[nH]ccc34)CC2)cc1` (stereo not shown) (as salt: HCl) [Example 4, 1-[4-(1H-Indol-4-yl)-piperazin-1-yl]-3-(4-nitro-phenoxy)-propan-2-ol], the melting point was 248 °C.
For `OC(COc1ccccc1-c1ccccc1)CN1CCN(c2cccc3[nH]ccc23)CC1` (stereo not shown) [Example 8, 1-(Biphenyl-2-yloxy)-3-[4-(1H-indol-4-yl)piperazin-1-yl]-propan-2-ol], at serotonin transporter, the inhibition at 0.1 µM worked out at 0%. The same molecule registered a Ki at human 5HT1A receptor of 4.5 nM.
On to `OC(COc1ccccc1Cl)CN1CCN(c2cccc3[nH]ccc23)CC1` (stereo not shown) [Example 5, 1-(2-Chloro-phenoxy)-3-[4-(1H-indol-4-yl)piperazin-1-yl]-propan-2-ol], for which the inhibition at 0.1 µM at serotonin transporter is 11%. Moreover, the Ki in series [1] was found to be 31.9 nM; on human 5HT1A receptor, 12.1 nM.
For `OC(COc1ccccc1Cl)CN1CCN(c2cccc3[nH]ccc23)CC1` (stereo not shown) (as salt: fumaric acid salt) [Example 5, 1-(2-Chloro-phenoxy)-3-[4-(1H-indol-4-yl)piperazin-1-yl]-propan-2-ol], the melting point worked out at 207 °C.
As for `OC(COc1ccc(Cl)cc1)CN1CCN(c2cccc3[nH]ccc23)CC1` (stereo not shown) [Example 2, 1-(4-Chloro-phenoxy)-3-[4-(1H-indol-4-yl)piperazin-1-yl]-propan-2-ol], the inhibition at 0.1 µM at serotonin transporter was 13%. The Ki stood at 33.5 nM in series [1] and 7.6 nM at human 5HT1A receptor.
The molecule `OC(COc1ccc(F)cc1)CN1CCN(c2cccc3[nH]ccc23)CC1` (stereo not shown) (as salt: fumaric acid salt) [Example 6, 1-(4-Fluoro-phenoxy)-3-[4-(1H-indol-4-yl)piperazin-1-yl]-propan-2-ol] yielded a melting point of 234 to 235 °C.
On the same count and under the same terms, to `OC(COc1ccccc1-c1ccccc1)CN1CCN(c2cccc3[nH]ccc23)CC1` (stereo not shown) (as salt: fumaric acid salt) [Example 8, 1-(Biphenyl-2-yloxy)-3-[4-(1H-indol-4-yl)piperazin-1-yl]-propan-2-ol] belongs 214 to 215 °C; to `OC(COc1cccc2[nH]ccc12)CN1CCN(c2cccc3[nH]ccc23)CC1` (stereo not shown) (as salt: fumaric acid salt) [Example 1, 1-(1H-Indol-4-yloxy)-3-[4-(1H-indol-4-yl)piperazin-1-yl]-propan-2-ol], 147 to 150 °C.
For `O=[N+]([O-])c1ccc(OCC(O)CN2CCN(c3cccc4[nH]ccc34)CC2)cc1` (stereo not shown) [Example 4, 1-[4-(1H-Indol-4-yl)-piperazin-1-yl]-3-(4-nitro-phenoxy)-propan-2-ol], the inhibition at 0.1 µM on serotonin transporter is 15%. On human 5HT1A receptor, this molecule registered an inhibitory constant (Ki) of 8.8 nM.
On the same counts, the results for `COc1ccc(OCC(O)CN2CCN(c3cccc4[nH]ccc34)CC2)cc1` (stereo not shown) [Example 3, 1-[4-(1H-Indol-4-yl)-piperazin-1-yl]-3-(4-methoxy-phenoxy)-propan-2-ol] are 17% and 1.8 nM.

The values are drawn from patent publication US6689792B2, “Antipsychotic indolyl derivatives” (Wyeth, priority 1998, dated 2004).
